Target: T1, F508del (Homo sapiens, UniProt P13569, DEL508-508)
T1 construct: expressed in transfected cells
Assay: Protocol 1: membrane potential optical assay (FLIPR III, voltage sensing dye), identification of potentiator compounds
Format: cell-based
Conditions: Table 3, compounds of Table 1
Procedure, shortened: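 Read-out: change in voltage-sensing dye fluorescence (FLIPR III) as a measure of F508del conductance. Temperature-corrected (27° C, 24 hrs) NIH 3T3 cells expressing F508del are pretreated with potentiators, dye-loaded, then stimulated with forskolin under a chloride ion gradient using chloride-free gluconate bath.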

T1 sequence (P13569 with tags, fused parts or gaps DEL508-508): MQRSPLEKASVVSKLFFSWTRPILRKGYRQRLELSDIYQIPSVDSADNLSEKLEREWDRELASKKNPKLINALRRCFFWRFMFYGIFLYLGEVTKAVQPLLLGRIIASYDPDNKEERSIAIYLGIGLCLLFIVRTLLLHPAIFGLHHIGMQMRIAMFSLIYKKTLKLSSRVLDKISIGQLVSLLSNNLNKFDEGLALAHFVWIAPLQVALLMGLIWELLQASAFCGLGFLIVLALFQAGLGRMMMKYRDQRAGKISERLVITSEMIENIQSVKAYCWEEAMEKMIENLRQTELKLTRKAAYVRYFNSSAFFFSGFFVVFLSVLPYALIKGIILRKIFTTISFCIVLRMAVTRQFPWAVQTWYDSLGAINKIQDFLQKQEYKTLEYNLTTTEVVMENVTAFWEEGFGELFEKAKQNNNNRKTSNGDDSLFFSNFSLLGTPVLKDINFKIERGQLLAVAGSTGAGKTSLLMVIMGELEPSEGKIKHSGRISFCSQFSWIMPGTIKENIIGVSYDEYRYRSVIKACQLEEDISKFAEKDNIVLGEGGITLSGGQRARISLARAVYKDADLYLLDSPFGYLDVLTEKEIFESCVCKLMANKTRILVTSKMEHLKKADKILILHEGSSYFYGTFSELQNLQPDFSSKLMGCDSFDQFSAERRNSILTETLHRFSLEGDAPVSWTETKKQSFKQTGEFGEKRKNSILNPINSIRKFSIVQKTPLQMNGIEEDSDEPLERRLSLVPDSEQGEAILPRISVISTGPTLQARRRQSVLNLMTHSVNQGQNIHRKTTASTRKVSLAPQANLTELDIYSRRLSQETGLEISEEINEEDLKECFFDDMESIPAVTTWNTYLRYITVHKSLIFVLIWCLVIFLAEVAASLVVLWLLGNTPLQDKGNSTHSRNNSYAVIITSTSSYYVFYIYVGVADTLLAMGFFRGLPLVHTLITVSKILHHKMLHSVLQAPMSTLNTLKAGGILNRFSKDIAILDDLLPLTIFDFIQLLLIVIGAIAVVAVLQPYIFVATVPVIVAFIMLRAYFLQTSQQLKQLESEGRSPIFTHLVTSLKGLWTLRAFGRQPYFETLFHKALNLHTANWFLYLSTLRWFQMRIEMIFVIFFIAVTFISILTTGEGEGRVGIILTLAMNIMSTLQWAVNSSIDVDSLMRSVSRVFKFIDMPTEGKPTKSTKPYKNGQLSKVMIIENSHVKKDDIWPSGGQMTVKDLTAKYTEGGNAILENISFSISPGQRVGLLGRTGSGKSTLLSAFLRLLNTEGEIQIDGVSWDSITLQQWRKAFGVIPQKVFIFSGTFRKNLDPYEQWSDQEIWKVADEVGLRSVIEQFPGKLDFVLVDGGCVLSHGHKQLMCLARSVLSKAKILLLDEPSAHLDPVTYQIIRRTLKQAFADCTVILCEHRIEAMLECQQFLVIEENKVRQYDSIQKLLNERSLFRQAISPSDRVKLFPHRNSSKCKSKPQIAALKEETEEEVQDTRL

Row | SMILES | EC30
1 | CC(C)COc1cc(F)cc(-c2ccc(C(=O)NS(=O)(=O)c3cccc(N)n3)c(N3CC(C)CC(C)C3)n2)c1 (stereo not shown) [Compound 1013, N-[(6-amino-2-pyridyl)sulfonyl]-2-(3,5-dimethyl-1-piperidyl)-6-(3-fluoro-5-isobutoxy-phenyl)pyridine-3-carboxamide] | +++ (“+++” means <3 uM)
2 | CC(C)Oc1ccc(-c2ccc(C(=O)NS(=O)(=O)c3cccc(N)n3)c(N3CCC[C@@H]3C(F)(F)F)n2)cn1 [Compound 1230, N-[(6-amino-2-pyridyl)sulfonyl]-6-(6-isopropoxy-3-pyridyl)-2-[(2R)-2-(trifluoromethyl)pyrrolidin-1-yl]pyridine-3-carboxamide] | ++ (“++” means between 3 uM and 10 uM)
3 | CC(C)COc1cc(F)cc(-c2ccc(C(=O)NS(=O)(=O)c3cccc(N)n3)c(N3CC(=O)CC3(C)C)n2)c1 [Compound 1073, N-[(6-amino-2-pyridyl)sulfonyl]-2-(2,2-dimethyl-4-oxo-pyrrolidin-1-yl)-6-(3-fluoro-5-isobutoxy-phenyl)pyridine-3-carboxamide] | + (“+” means greater than 10 uM)
4 | CC(C)COc1cc(F)cc(-c2ccc(C(=O)NS(=O)(=O)c3ccn[nH]3)c(N3CCC(C)CC3)n2)c1 [Compound 1083, 6-(3-fluoro-5-isobutoxy-phenyl)-2-(4-methyl-1-piperidyl)-N-(1H-pyrazol-5-ylsulfonyl)pyridine-3-carboxamide] | +++ (“+++” means <3 uM)
5 | CCN(CC)c1cccc(-c2ccc(C(=O)NS(=O)(=O)c3cccc(N)n3)c(N3CC(C)CC3(C)C)n2)n1 (stereo not shown) [Compound 1345, N-[(6-amino-2-pyridyl)sulfonyl]-6-[6-(diethylamino)-2-pyridyl]-2-(2,2,4-trimethylpyrrolidin-1-yl)pyridine-3-carboxamide] | +++ (“+++” means <3 uM)
6 | Cc1ccc(-c2ccc(C(=O)NS(=O)(=O)c3ccc[nH]c3=O)c(Oc3c(C)cc(C)cc3C)n2)cc1 [Compound 1300, N-[(2-oxo-1H-pyridin-3-yl)sulfonyl]-6-(p-tolyl)-2-(2,4,6-trimethylphenoxy)pyridine-3-carboxamide] | +++ (“+++” means <3 uM)
7 | CC(C)Oc1ccc(-c2ccc(C(=O)NS(=O)(=O)c3cccnc3N)c(N3[C@H](C)CC[C@@H]3C)n2)cn1 [Compound 1316, N-[(2-amino-3-pyridyl)sulfonyl]-2-[(2S,5R)-2,5-dimethylpyrrolidin-1-yl]-6-(6-isopropoxy-3-pyridyl)pyridine-3-carboxamide] | +++ (“+++” means <3 uM)
8 | CC1CN(c2nc(-c3ccc(C(C)C)nc3)ccc2C(=O)NS(=O)(=O)c2cccc(N)n2)C(C)(C)C1 (stereo not shown) [Compound 896, N-[(6-amino-2-pyridyl)sulfonyl]-6-(6-isopropyl-3-pyridyl)-2-(2,2,4-trimethylpyrrolidin-1-yl)pyridine-3-carboxamide] | +++ (“+++” means <3 uM)
9 | CC(C)COc1cc(F)cc(-c2ccc(C(=O)NS(=O)(=O)c3cccc(N)n3)c(N(CC3CC3)C(C)C)n2)c1 [Compound 1157, N-[(6-amino-2-pyridyl)sulfonyl]-2-[cyclopropylmethyl(isopropyl)amino]-6-(3-fluoro-5-isobutoxy-phenyl)pyridine-3-carboxamide] | +++ (“+++” means <3 uM)
10 | CC(C)COc1cc(F)cc(-c2ccc(C(=O)NS(=O)(=O)c3ccc(O)c(N)n3)c(N3C[C@@H](C)CC3(C)C)n2)c1 [Compound 1563, N-[(6-amino-5-hydroxy-2-pyridyl)sulfonyl]-6-(3-fluoro-5-isobutoxy-phenyl)-2-[(4S)-2,2,4-trimethylpyrrolidin-1-yl]pyridine-3-carboxamide] | +++ (“+++” means <3 uM)
11 | CC(C)Oc1ccc(-c2ccc(C(=O)NS(=O)(=O)c3cccc(N)n3)c(NC3CCc4ccccc43)n2)cn1 (stereo not shown) [Compound 935, N-[(6-amino-2-pyridyl)sulfonyl]-2-(indan-1-ylamino)-6-(6-isopropoxy-3-pyridyl)pyridine-3-carboxamide] | ++ (“++” means between 3 uM and 10 uM)
12 | CC(C)Oc1ccc(-c2ccc(C(=O)NS(=O)(=O)c3cccc(N)n3)c(N3C[C@H]4CC[C@@H]3C4)n2)cn1 [Compound 921, N-[(6-amino-2-pyridyl)sulfonyl]-2-[(1S,4R)-3-azabicyclo[2.2.1]heptan-3-yl]-6-(6-isopropoxy-3-pyridyl)pyridine-3-carboxamide] | ++ (“++” means between 3 uM and 10 uM)
13 | CC(C)COc1cc(F)cc(-c2ccc(C(=O)NS(=O)(=O)c3cccc(N)n3)c(N3C[C@H](C)CC3(C)C)n2)c1 [Compound 1289, N-[(6-amino-2-pyridyl)sulfonyl]-6-(3-fluoro-5-isobutoxy-phenyl)-2-[(4R)-2,2,4-trimethylpyrrolidin-1-yl]pyridine-3-carboxamide] | +++ (“+++” means <3 uM)
14 | Cc1ccnc(-c2ccc(C(=O)NS(=O)(=O)c3cccc(N)n3)c(Oc3c(C)cc(C)cc3C)n2)c1 [Compound 1272, N-[(6-amino-2-pyridyl)sulfonyl]-6-(4-methyl-2-pyridyl)-2-(2,4,6-trimethylphenoxy)pyridine-3-carboxamide] | +++ (“+++” means <3 uM)
15 | Cc1cc(C)c(Oc2nc(-c3cccnc3OC(C)C)ccc2C(=O)NS(=O)(=O)c2cccc(N)n2)c(C)c1 [Compound 909, N-[(6-amino-2-pyridyl)sulfonyl]-6-(2-isopropoxy-3-pyridyl)-2-(2,4,6-trimethylphenoxy)pyridine-3-carboxamide] | +++ (“+++” means <3 uM)
16 | Cc1cc(C)c(Oc2nc(C3=CCOCC3)ccc2C(=O)NS(=O)(=O)c2cccc(N)n2)c(C)c1 [Compound 976, N-[(6-amino-2-pyridyl)sulfonyl]-6-(3,6-dihydro-2H-pyran-4-yl)-2-(2,4,6-trimethylphenoxy)pyridine-3-carboxamide] | ++ (“++” means between 3 uM and 10 uM)
17 | Cc1ccccc1-c1nc(C(C)(C)C)ccc1C(=O)NS(=O)(=O)c1cccc(N)c1 [Compound 1036, N-(3-aminophenyl)sulfonyl-6-tert-butyl-2-(o-tolyl)pyridine-3-carboxamide] | + (“+” means greater than 10 uM)

More lines, now with the values ahead:

Row | EC30 | SMILES
18 | +++ (“+++” means <3 uM) | C[C@@H]1CN(c2nc(-c3cccc(F)c3)ccc2C(=O)NS(=O)(=O)c2ccc[nH]c2=O)C(C)(C)C1 [Compound 1925, 6-(3-fluorophenyl)-N-[(2-oxo-1H-pyridin-3-yl)sulfonyl]-2-[(4S)-2,2,4-trimethylpyrrolidin-1-yl]pyridine-3-carboxamide]
19 | +++ (“+++” means <3 uM) | CCOc1cc(F)ccc1-c1ccc(C(=O)NS(=O)(=O)c2cccnc2N)c(N2C[C@@H](C)CC2(C)C)n1 [Compound 1808, N-[(2-amino-3-pyridyl)sulfonyl]-6-(2-ethoxy-4-fluoro-phenyl)-2-[(4S)-2,2,4-trimethylpyrrolidin-1-yl]pyridine-3-carboxamide]
20 | +++ (“+++” means <3 uM) | Cc1cc(C)c(Cn2nc(C(C)(C)C)cc2C(=O)NS(=O)(=O)c2ccncc2)c(C)c1 [Compound 1585, 5-tert-butyl-N-(4-pyridylsulfonyl)-2-[7(2,4,6-trimethylphenyl)methyl]pyrazole-3-carboxamide]
21 | +++ (“+++” means <3 uM) | CC1CN(c2ncccc2C(=O)NS(=O)(=O)c2cccc(N(C)Cc3ccccc3)n2)C(C)(C)C1 (stereo not shown) [Compound 1827, N—[[6-[benzyl(methyl)amino]-2-pyridyl]sulfonyl]-2-(2,2,4-trimethylpyrrolidin-1-yl)pyridine-3-carboxamide]
22 | +++ (“+++” means <3 uM) | C[C@@H]1CN(c2nc(/C=C/C3CC3)ccc2C(=O)NS(=O)(=O)c2cccc(N)n2)C(C)(C)C1 [Compound 1379, N-[(6-amino-2-pyridyl)sulfonyl]-6-[(E)-2-cyclopropylvinyl]-2-[(4S)-2,2,4-trimethylpyrrolidin-1-yl]pyridine-3-carboxamide]
23 | +++ (“+++” means <3 uM) | C[C@@H]1CN(c2nc(-c3ccc(OC(F)(F)F)cc3)ccc2C(=O)NS(=O)(=O)N2CC[C@H](N)C2)C(C)(C)C1 [Compound 1763, N-[(3S)-3-aminopyrrolidin-1-yl]sulfonyl-6-[4-(trifluoromethoxy)phenyl]-2-[(4S)-2,2,4-trimethylpyrrolidin-1-yl]pyridine-3-carboxamide]
24 | +++ (“+++” means <3 uM) | CC1CN(c2ncccc2C(=O)NS(=O)(=O)c2cccc(Nc3ccc(N(C)C)cc3)n2)C(C)(C)C1 (stereo not shown) [Compound 1757, N—[[6-[4-(dimethylamino)anilino]-2-pyridyl]sulfonyl]-2-(2,2,4-trimethylpyrrolidin-1-yl)pyridine-3-carboxamide]
25 | +++ (“+++” means <3 uM) | CCOc1ccc(-c2ccc(C(=O)NS(=O)(=O)c3cccnc3N)c(N3C[C@@H](C)CC3(C)C)n2)cc1C [Compound 1860, N-[(2-amino-3-pyridyl)sulfonyl]-6-(4-ethoxy-3-methyl-phenyl)-2-[(4S)-2,2,4-trimethylpyrrolidin-1-yl]pyridine-3-carboxamide]
26 | +++ (“+++” means <3 uM) | CC1CN(c2nc(C(C)(C)C)c(C3=CCN(C(=O)OCc4ccccc4)CC3)cc2C(=O)NS(=O)(=O)c2cccc(N)n2)C(C)(C)C1 (stereo not shown) [Compound 1404, benzyl 4-[5-[(6-amino-2-pyridyl)sulfonylcarbamoyl]-2-tert-butyl-6-(2,2,4-trimethylpyrrolidin-1-yl)-3-pyridyl]-3,6-dihydro-2H-pyridine-1-carboxylate]
27 | +++ (“+++” means <3 uM) | C[C@@H]1CN(c2nc(C3CC3)ccc2C(=O)NS(=O)(=O)c2cccc(N)n2)C(C)(C)C1 [Compound 1627, N-[(6-amino-2-pyridyl)sulfonyl]-6-cyclopropyl-2-[(4S)-2,2,4-trimethylpyrrolidin-1-yl]pyridine-3-carboxamide]
28 | +++ (“+++” means <3 uM) | CC1CN(c2ncccc2C(=O)NS(=O)(=O)c2cccc(OCc3cc(-c4ccccc4)on3)n2)C(C)(C)C1 (stereo not shown) [Compound 1777, N—[[6-[(5-phenylisoxazol-3-yl)methoxy]-2-pyridyl]sulfonyl]-2-(2,2,4-trimethylpyrrolidin-1-yl)pyridine-3-carboxamide]

Reference: patent publication US10758534B2 (Vertex Pharmaceuticals Incorporated, priority 2014, dated 2020)
